This assay has as its system Karpas-299 cells. The assay can be described thus: Cellular toxicity test (1), CellTiter-Glo cell viability. The class given is cell-based, human. The settings on record: for pIC50: Homo sapiens, 96 h, Karpas-299, cultured 4 days, cell viability. How it is done: Karpas-299 cells (European Collection of Authenticated Cell Cultures, hereinafter, ECACC), which are human lymphoma cell lines, were cultured in RPMI 1640 (GIBCO) containing 10% fetal bovine serum (MP Biomedicals) (hereinafter, referred to as the “culture medium”). Cells were prepared to be 2×10^5 cells/mL in the culture medium, and were added to a 96 well microplate for cell culturing in an amount of 50 μL for each well. Compounds of Examples or the Comparative Example compound 4 times diluted with the culture medium in 8 stages were added to the microplate in an amount of 50 μL for each well. These were cultured at 37° C. under 5% CO2 for 4 days. After culturing, the microplate was taken out from the incubator, and was left at rest at room temperature for 10 minutes. To each well, 50 μL of CellTiter-Glo Luminescent Cell Viability Assay (Promega) was added, and the resultant mixture was stirred. This mixture was incubated at a dark place for 20 minutes. Using a microplate luminometer, luminescence at each well was measured, thereby calculating the cell viability. From the value of the cell viability, the IC50 value was calculated.
The IC50 value was calculated by the following formula: IC50(nM)=antilog(LOG10(a/b)×(e−d)/(c−d)+LOG10b) • a: concentration a of test substance • b: concentration b of test substance • c: cell viability upon adding test substance with concentration a • d: cell viability upon adding test substance with concentration b • e: intermediate value between maximum and minimum among cell viabilities upon adding test substances with different concentrations (a and b are concentrations crossing the cell viability e, and a>b is indicated).
The cell viability at each concentration was calculated by the following formula: Cell Viability (%)=a′/b′×100 • a′: mean value of luminescence amount of wells to which test substance was added (n=6) • b′: mean value of luminescence amount of wells to which test substance was not added (n=6) • (n represents the number of evaluations performed per test substance concentration).
In general terms: Cellular ATP, detected with luciferase, serves as a proxy for viable cell number.

Structures are written as SMILES. pIC50: −log10 of the molar value.

The record followed here is US12312419B2, “Hemiasterlin derivative having cysteine residue” (priority 2019, dated 2025).

For orientation: pIC50 means the negative decadic logarithm of the IC50, by convention in mol/L. The low end stands for a high IC50, the high end for a low IC50. With `CN[C@H](C(=O)N[C@H](C(=O)N(C)[C@H](/C=C(\C)C(=O)N[C@H](CCC(=O)N[C@@H](CCCCNC(=O)CCCCCN1C(=O)CC(SC[C@H](N)C(=O)O)C1=O)C(=O)O)C(=O)O)C(C)C)C(C)(C)C)C(C)(C)c1cn(C)c2ccccc12` (stereo partly shown) [Example MM2], the pIC50 is 6.34.

On to `CN[C@H](C(=O)N[C@H](C(=O)N(C)[C@H](/C=C(\C)C(=O)N[C@H](CCC(=O)NCCN1C(=O)CC(SC[C@H](N)C(=O)O)C1=O)C(=O)O)C(C)C)C(C)(C)C)C(C)(C)c1ccc2ccccc2c1` (stereo partly shown) [Example MM38], for which the pIC50 is 6.14.

As to `CN[C@H](C(=O)N[C@H](C(=O)N(C)[C@H](/C=C(\C)C(=O)N[C@@H](CC(=O)O)C(=O)NCCN1C(=O)CC(SC[C@H](N)C(=O)O)C1=O)C(C)C)C(C)(C)C)C(C)(C)c1ccccc1` (stereo partly shown) [Example MM14], the pIC50 is less than 6.00.

Compound `CN[C@H](C(=O)N[C@H](C(=O)N(C)[C@H](/C=C(\C)C(=O)N[C@H](CCC(=O)NCCCN1C(=O)CC(SC[C@H](N)C(=O)O)C1=O)C(=O)O)C(C)C)C(C)(C)C)C(C)(C)c1ccccc1` (stereo partly shown) [Example MM16] showed a pIC50 of 6.06.

Turning to `CN[C@H](C(=O)N[C@H](C(=O)N(C)[C@H](/C=C(\C)C(=O)N[C@H](CCC(=O)NCCN1C(=O)CC(SC[C@H](N)C(=O)O)C1=O)C(=O)O)C(C)C)C(C)(C)C)C(C)(C)c1cn(C)c2ccccc12` (stereo partly shown) [Example MM4], the pIC50 is 6.54. This pIC50 is 0.48 log units higher than that of the compound before.

For `CN[C@H](C(=O)N[C@H](C(=O)N(C)[C@H](/C=C(\C)C(=O)N[C@H](CC(=O)NCCN1C(=O)CC(SC[C@H](N)C(=O)O)C1=O)C(=O)O)C(C)C)C(C)(C)C)C(C)(C)c1ccccc1` (stereo partly shown) [Example MM9], the pIC50 was less than 6.00.

In turn, `CN[C@H](C(=O)N[C@H](C(=O)N(C)[C@H](/C=C(\C)C(=O)N[C@H](CCC(=O)NCCN1C(=O)CC(SC[C@H](N)C(=O)O)C1=O)C(=O)O)C(C)C)C(C)(C)C)C(C)(C)c1cccc(C)c1` (stereo partly shown) [Example MM40] had a pIC50 of 6.84.

With `CN[C@H](C(=O)N[C@H](C(=O)N(C)[C@H](/C=C(\C)C(=O)NCCCCNC(=O)CCCCCN1C(=O)CC(SC[C@H](N)C(=O)O)C1=O)C(C)C)C(C)(C)C)C(C)(C)c1cn(C)c2ccccc12` (stereo partly shown) [Comparative Example compound, reference compound], under “in words, summary of Table 17”, the “cellular toxicity to Karpas-299 cells” value is “strong cellular toxicity”.

On to `CN[C@H](C(=O)N[C@H](C(=O)N(C)[C@H](/C=C(\C)C(=O)N[C@@H](CC(=O)NCCN1C(=O)CC(SC[C@H](N)C(=O)O)C1=O)C(=O)O)C(C)C)C(C)(C)C)C(C)(C)c1ccccc1` (stereo partly shown) [Example MM10], for which the negative-log IC50 (pIC50) is less than 6.00.

`CN[C@H](C(=O)N[C@H](C(=O)N(C)[C@H](/C=C(\C)C(=O)N[C@H](CCC(=O)NCCN1C(=O)CC(SC[C@H](N)C(=O)O)C1=O)C(=O)O)C(C)C)C(C)(C)C)C(C)(C)c1cccc(OC)c1` (stereo partly shown) [Example MM36] gave a pIC50 of less than 6.00.

The compound `C/C(=C\[C@H](C(C)C)N(C)C(=O)[C@@H](NC(=O)[C@@H](NC(=O)CCCCCN1C(=O)CC(SC[C@H](N)C(=O)O)C1=O)C(C)(C)c1cn(C)c2ccccc12)C(C)(C)C)C(=O)N[C@H](CCC(=O)O)C(=O)O` (stereo partly shown) [Example MM44] had a pIC50 of less than 6.00.

`CN[C@H](C(=O)N[C@H](C(=O)N(C)[C@H](/C=C(\C)C(=O)N[C@H](CCC(=O)NCCN1C(=O)CC(SC[C@H](N)C(=O)O)C1=O)C(=O)O)C(C)C)C(C)(C)C)C(C)(C)c1cc(C)cc(C)c1` (stereo partly shown) [Example MM37] had a pIC50 of less than 6.00.

Regarding `CN[C@H](C(=O)N[C@H](C(=O)N(C)[C@H](/C=C(\C)C(=O)N[C@H](CC(=O)O)C(=O)NCCN1C(=O)CC(SC[C@H](N)C(=O)O)C1=O)C(C)C)C(C)(C)C)C(C)(C)c1ccccc1` (stereo partly shown) [Example MM13], the pIC50 was less than 6.00.

The compound `CN[C@H](C(=O)N[C@H](C(=O)N(C)[C@H](/C=C(\C)C(=O)N[C@H](CCC(=O)NCCN1C(=O)CC(SC[C@H](N)C(=O)O)C1=O)C(=O)O)C(C)C)C(C)(C)C)C(C)(C)c1ccc(C(=O)O)cc1` (stereo partly shown) [Example MM35] had a pIC50 of less than 6.00.

On to `CN[C@H](C(=O)N[C@H](C(=O)N(C)[C@H](/C=C(\C)C(=O)N[C@H](CCC(=O)N[C@H](CCC(=O)NCCN1C(=O)CC(SC[C@H](N)C(=O)O)C1=O)C(=O)O)C(=O)O)C(C)C)C(C)(C)C)C(C)(C)c1cn(C)c2ccccc12` (stereo partly shown) [Example MM3], for which the pIC50 is 6.41.

Compound `CN[C@H](C(=O)N[C@H](C(=O)N(C)[C@H](/C=C(\C)C(=O)N[C@H](CC(=O)NCCN1C(=O)CC(SC[C@H](N)C(=O)O)C1=O)C(=O)O)C(C)C)C(C)(C)C)C(C)(C)c1cn(C)c2ccccc12` (stereo partly shown) [Example MM20] gave a pIC50 of 6.47.

Take `CN[C@H](C(=O)N[C@H](C(=O)N(C)[C@H](/C=C(\C)C(=O)N[C@H](CCC(=O)NCCN1C(=O)CC(SC[C@H](N)C(=O)O)C1=O)C(=O)O)C(C)C)C(C)(C)C)C(C)(C)c1cccc(F)c1` (stereo partly shown) [Example MM31]: the pIC50 is less than 6.00.

For the compound `CNC(C(=O)N[C@H](C(=O)N(C)[C@H](/C=C(\C)C(=O)N[C@H](CCC(=O)NCCN1C(=O)CC(SC[C@H](N)C(=O)O)C1=O)C(=O)O)C(C)C)C(C)(C)C)C(C)(C)c1ccc(O)cc1` (stereo partly shown) [Example MM33], the pIC50 was 7.44.

Consider `CNC(C(=O)N[C@H](C(=O)N(C)[C@H](/C=C(\C)C(=O)N[C@H](CCC(=O)O)C(=O)O)C(C)C)C(C)(C)C)C(C)(C)c1ccc(C(=O)NCCN2C(=O)CC(SC[C@H](N)C(=O)O)C2=O)cc1` (stereo partly shown) [Example MM43], for which the pIC50 is less than 6.00.

For `C/C(=C\[C@H](C(C)C)N(C)C(=O)[C@@H](NC(=O)[C@H]1CCCCN1C(=O)CCN1C(=O)CC(SC[C@H](N)C(=O)O)C1=O)C(C)(C)C)C(=O)N[C@H](CCC(=O)O)C(=O)O` (stereo partly shown) [Example MM29], the negative-log IC50 (pIC50) was less than 6.00.

On to `CN[C@H](C(=O)N[C@H](C(=O)N(C)[C@H](/C=C(\C)C(=O)N[C@@H](CCC(=O)O)C(=O)NCCN1C(=O)CC(SC[C@H](N)C(=O)O)C1=O)C(C)C)C(C)(C)C)C(C)(C)c1cn(C)c2ccccc12` (stereo partly shown) [Example MM22], for which the pIC50 is 6.13.

As to `CN[C@H](C(=O)N[C@H](C(=O)N(C)[C@H](/C=C(\C)C(=O)N[C@H](CCC(=O)O)C(=O)NCCN1C(=O)CC(SC[C@H](N)C(=O)O)C1=O)C(C)C)C(C)(C)C)C(C)(C)c1cn(C)c2ccccc12` (stereo partly shown) [Example MM25], the pIC50 was 6.26.

`CN[C@H](C(=O)N[C@H](C(=O)N(C)[C@H](/C=C(\C)C(=O)N[C@H](CCC(=O)N[C@H](CCC(=O)NCCN1C(=O)CC(SC[C@H](N)C(=O)O)C1=O)C(=O)O)C(=O)O)C(C)C)C(C)(C)C)C(C)(C)c1ccccc1` (stereo partly shown) [Example MM6] had a pIC50 of less than 6.00.

Regarding `CN[C@H](C(=O)N[C@H](C(=O)N(C)[C@H](/C=C(\C)C(=O)N[C@H](CCC(=O)N[C@H](CCC(=O)N[C@H](CCC(=O)NCCN1C(=O)CC(SC[C@H](N)C(=O)O)C1=O)C(=O)O)C(=O)O)C(=O)O)C(C)C)C(C)(C)C)C(C)(C)c1ccccc1` (stereo partly shown) [Example MM7], the pIC50 was less than 6.00.

`CN[C@H](C(=O)N[C@H](C(=O)N(C)[C@H](/C=C(\C)C(=O)NCCCC[C@@H](NC(=O)CCCN1C(=O)CC(SC[C@H](N)C(=O)O)C1=O)C(=O)O)C(C)C)C(C)(C)C)C(C)(C)c1cn(C)c2ccccc12` (stereo partly shown) [Example MM5] gave a pIC50 of less than 6.00.

Take `CN[C@H](C(=O)N[C@H](C(=O)N(C)[C@H](/C=C(\C)C(=O)N[C@@H](CC(=O)O)C(=O)NCCN1C(=O)CC(SC[C@H](N)C(=O)O)C1=O)C(C)C)C(C)(C)C)C(C)(C)c1cn(C)c2ccccc12` (stereo partly shown) [Example MM21]: the pIC50 is 6.33.

Take `CN[C@H](C(=O)N[C@H](C(=O)N(C)[C@H](/C=C(\C)C(=O)N[C@H](CCC(=O)N[C@@H](CCCCNC(=O)CCN1C(=O)CC(SC[C@H](N)C(=O)O)C1=O)C(=O)O)C(=O)O)C(C)C)C(C)(C)C)C(C)(C)c1cn(C)c2ccc(F)cc12` (stereo partly shown) [Example MM26]: the pIC50 is 6.42.

The compound `CN[C@H](C(=O)N[C@H](C(=O)N(C)[C@H](/C=C(\C)C(=O)N[C@H](CCC(=O)NCCN1C(=O)CC(SC[C@H](N)C(=O)O)C1=O)C(=O)O)C(C)C)C(C)(C)C)C(C)(C)c1cccc(-c2ccccc2)c1` (stereo partly shown) [Example MM39] gave a pIC50 of 6.93.

In turn, `CN[C@H](C(=O)N[C@H](C(=O)N(C)[C@H](/C=C(\C)C(=O)N[C@@H](CC(=O)NCCN1C(=O)CC(SC[C@H](N)C(=O)O)C1=O)C(=O)O)C(C)C)C(C)(C)C)C(C)(C)c1cn(C)c2ccccc12` (stereo partly shown) [Example MM19] gave a pIC50 of 6.52.

`CN[C@H](C(=O)N[C@H](C(=O)N(C)[C@H](/C=C(\C)C(=O)N[C@@H](CCCCNC(=O)CCCN1C(=O)CC(SC[C@H](N)C(=O)O)C1=O)C(=O)O)C(C)C)C(C)(C)C)C(C)(C)c1cn(C)c2ccccc12` (stereo partly shown) [Example MM27] showed a pIC50 of less than 6.00.

Compound `CN[C@H](C(=O)N[C@H](C(=O)N(C)[C@H](/C=C(\C)C(=O)N[C@H](CC(=O)O)C(=O)NCCN1C(=O)CC(SC[C@H](N)C(=O)O)C1=O)C(C)C)C(C)(C)C)C(C)(C)c1cn(C)c2ccccc12` (stereo partly shown) [Example MM24] had a pIC50 of 6.28.
